# Like-named read-outs stand apart in the source and are kept apart here.
# Columns and labels:
# [1] = in vivo; details: C57Bl/6, mouse, ip
# [2] = tested on: GL261-hIDO1 tumours; experiment: Growth of subcutaneous GL261-hIDO1 tumours under daily ip treatment; type: in vivo; details: daily ip 75, 100 and 150 mg/kg, C57Bl/6 mice
# Description: C57Bl/6 mice bred at the Vernon Jansen Unit, University of Auckland were used as the hosts for the growth of GL261 and LLTC tumours. Unless stated, first-generation tumours, initiated by injecting 10^6 cells in 100 µL medium subcutaneously into the left flank of each mouse were used for experiments. […] Tumours were measured thrice weekly, and tumour volumes were calculated as 0.52a^2b, where a and b are the minor and major axes of the tumour.
# C57Bl/6 mice were inoculated subcutaneously into the left flank with 10^6 GL261-hIDO1 cells and were randomised into treatment groups 6 days after inoculation when the tumours were approximately 3 × 3 mm in size. Mice with tumours were treated daily with ip injection of the inhibitor at a tolerated non-toxic dose, dissolved to the required concentration in 50 µL DMSO per mouse. Control groups received only DMSO (≤50 µL).
# [3] = biological target: T1, human IDO1 (Homo sapiens, UniProt P14902); experiment: cell-free recombinant hIDO1 enzymatic assay; type: biochemical; details: Figure 4, read-out: IC50 (enzyme assay)
# [4] = biological target: T1, human IDO1; experiment: LLTC-hIDO1 cell-based assay (kynurenine in supernatant); design: host or cells: murine LLTC Lewis lung carcinoma cells
# Source text: (§1) Transfected LLTC cells constitutively expressing human IDO1 (LLTC-hIDO1) were established as previously described, by transfecting wild-type LLTC cells with pAd/CMV/V5-DEST with cDNA for human IDO1 (Invitrogen, Carlsbad, CA, USA). LLTC-mIDO1 cells that constitutive express murine IDO1 were established by transfection of wild-type LLTC with cDNA for murine IDO1 (courtesy of Dr Benoit van den Eynde). GL261 cells were similarly transfected to produce a line constitutively expressing human IDO1 (GL261-hIDO1), and a GL261-hTDO2 line expressing the human TDO2 gene (Source BioScience, Nottingham, England). Stable transfectants were maintained in αMEM with 10% FCS and selection antibiotics (2 µM puromycin for lines transfected with human dioxygenase genes, or 5 µg/mL blastocidin for LLTC-mIDO1 cells).
# (§2) For the cell-based assays with engineered TDO2-expressing lines (10^4 cells per well), the α-MEM culture media was additionally supplemented with […] L-tryptophan. In brief, cells were cultured 24 h with the test compounds, and then supernatants from each well were transferred into fresh, flat-bottomed 96-well plates, mixed with trichloroacetic acid (10% final concentration) and incubated for 20 min, at 60 °C. Plates were centrifuged and supernatants transferred and mixed 1:1 with 4-(dimethylamino)benzaldehyde and the absorbance read at 480 nm as previously described. The inhibition of cellular enzyme activity at each drug concentration was calculated as a percent of control wells with no added drug.
# [5] = biological target: T2, murine IDO1 (Mus musculus, UniProt P28776); experiment: LLTC-mIDO1 cell-based assay (kynurenine in supernatant)
# T2 construct: expressed in transfected cells; host or cells: murine LLTC Lewis lung carcinoma cells
# Source text: as §1, §2
# [6] = tested on: GL261-hIDO1 tumours; experiment: K:T ratios in plasma and tumour of mice with GL261-hIDO1 tumours after single ip dose; type: in vivo, C57Bl/6 mice; details: single ip 150 mg/kg
# Description: C57Bl/6 mice were inoculated subcutaneously with 10^6 GL261-WT or GL261-hIDO1 cells in […] PBS into the left flank. […] In brief, 100µL of each plasma sample was mixed with 100µL of potassium phosphate buffer (0.05 M, pH 6) containing 100µM of the internal standard, 3-Nitro-L-Tyrosine (Sigma-Aldred, St Louis, MO, USA). Twenty-five µL of 2 mol/L trichloroacetic acid (Merck) was added to precipitate the proteins, and the samples were then vortexed and centrifuged at 12,000× g for 6 min, at room temperature. Standard calibration curves made from serial dilution of tryptophan (Sigma) and L-kynurenine (Sigma) were prepared with the same treatment as the samples. All supernatants collected after centrifugation were transferred into micro sampling vials and analysed for kynurenine and tryptophan as previously described by HPLC (HP Agilent 1200, Agilent Technologies, Walbronn, Germany). Kynurenine and tryptophan concentrations in samples were calculated from the standard calibration curves and the kynurenine to tryptophan ratio (K:T) was calculated by dividing the concentration of kynurenine by the tryptophan concentration.
# [7] = biological target: T3, human TDO2 (Homo sapiens, UniProt P48775); experiment: GL261-hTDO2 cell-based assay (kynurenine in supernatant); details: Table 2; for IC50 Ratio hTDO2/hIDO1: GL261-hTDO2 IC50 / LLTC-hIDO1 IC50, ^−1 marks inverse ratio; for IC50: GL261-hTDO2 cells
# T3 construct: host or cells: murine GL261 glioma cells
# Description: Each compound was tested in cell-based assays using LLTC-hIDO1 and GL261-hTDO2, respectively, for their potency at inhibiting human IDO1 and human TDO2.
# as §1, §2
# [8] = LLTC-hIDO1 cell assay vs recombinant hIDO1 enzymatic assay
# [9] = Table 1, LLTC-hIDO1 cells, 24 h culture with compound, read-out: IC50 (µM) LLTC-hIDO1
# [10] = Table 2, LLTC-hIDO1 cells, read-out: IC50 (µM) LLTC-hIDO1
# [11] = Table 1, LLTC-mIDO1 cells, 24 h culture with compound, read-out: IC50 (µM) LLTC-mIDO1
# [12] = mice with 16-day GL261-hIDO1 tumours
# T3 sequence (P48775 whole entry): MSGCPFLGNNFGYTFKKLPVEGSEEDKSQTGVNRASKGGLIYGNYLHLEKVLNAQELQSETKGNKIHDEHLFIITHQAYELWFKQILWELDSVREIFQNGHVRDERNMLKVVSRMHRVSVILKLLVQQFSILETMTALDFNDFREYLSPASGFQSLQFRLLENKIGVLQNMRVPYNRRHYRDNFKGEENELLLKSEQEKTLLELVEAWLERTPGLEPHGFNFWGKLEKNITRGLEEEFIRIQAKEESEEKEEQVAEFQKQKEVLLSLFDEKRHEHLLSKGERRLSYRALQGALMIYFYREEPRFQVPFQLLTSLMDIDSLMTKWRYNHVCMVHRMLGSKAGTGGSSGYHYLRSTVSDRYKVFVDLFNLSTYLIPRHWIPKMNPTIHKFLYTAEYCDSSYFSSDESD
# T1 sequence (P14902 whole entry): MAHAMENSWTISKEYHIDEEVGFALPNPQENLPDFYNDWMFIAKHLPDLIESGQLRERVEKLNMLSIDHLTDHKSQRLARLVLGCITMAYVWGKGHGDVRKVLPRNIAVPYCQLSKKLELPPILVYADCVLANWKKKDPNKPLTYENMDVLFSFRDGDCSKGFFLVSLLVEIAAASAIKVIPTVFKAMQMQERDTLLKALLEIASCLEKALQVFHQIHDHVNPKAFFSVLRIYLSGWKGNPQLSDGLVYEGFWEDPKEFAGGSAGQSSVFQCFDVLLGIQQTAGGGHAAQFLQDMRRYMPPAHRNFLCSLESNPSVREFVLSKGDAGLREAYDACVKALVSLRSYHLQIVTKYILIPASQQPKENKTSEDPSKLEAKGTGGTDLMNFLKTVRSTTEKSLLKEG
# T2 sequence (P28776 whole entry): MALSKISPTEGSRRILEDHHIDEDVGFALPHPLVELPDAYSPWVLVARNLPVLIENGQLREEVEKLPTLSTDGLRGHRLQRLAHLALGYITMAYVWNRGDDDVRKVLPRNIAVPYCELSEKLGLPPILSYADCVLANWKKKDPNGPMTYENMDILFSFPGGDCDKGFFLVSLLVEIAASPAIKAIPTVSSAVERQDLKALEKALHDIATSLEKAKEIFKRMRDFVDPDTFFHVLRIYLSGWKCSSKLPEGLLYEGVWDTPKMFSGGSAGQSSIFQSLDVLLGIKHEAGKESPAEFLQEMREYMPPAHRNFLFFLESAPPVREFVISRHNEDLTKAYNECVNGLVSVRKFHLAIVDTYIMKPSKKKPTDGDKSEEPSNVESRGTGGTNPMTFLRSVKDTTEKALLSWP
"IC50 [4, 9]","IC50 [4, 10]","IC50 [5, 11]",IC50 [7],Structure (SMILES),other results
–,–,–,6.08 µM,"Nc1nonc1/C(=N\O)Nc1ccc(F)c(Cl)c1 [INCB14934, reference compound]","titration curve in the cell-assay compared to that in the enzymatic assay [4, 8]: very similar; IC50 [5]: 0.12 µM"
–,0.7 µM,–,0.11 µM,Nc1noc2ncc(Cl)cc12 [SN36499],–
–,0.06 µM,–,4.14 µM,Cc1cc(Cl)nc2onc(N)c12 [SN37313],IC50 Ratio hTDO2/hIDO1 [7]: 67
–,2.11 µM,–,1.58 µM,Nc1noc2nc3ccccc3cc12 [SN36500],–
–,0.64 µM,–,0.11 µM,Nc1noc2ncc(I)cc12 [SN36896],–
–,4.38 µM,–,37 µM,Nc1noc2nc(-c3ccccc3)ccc12 [SN36796],IC50 Ratio hTDO2/hIDO1 [7]: 8
–,0.3 µM,–,14.1 µM,Cc1nc2onc(N)c2c(C)c1Br [SN36494],IC50 Ratio hTDO2/hIDO1 [7]: 47
–,8.67 µM,–,1.07 µM,Nc1noc2ncncc12 [SN36704],–
–,2.06 µM,–,175 µM,Cc1nc2onc(NC(=O)Nc3ccccc3)c2c(C)c1Cl [SN37705],IC50 Ratio hTDO2/hIDO1 [7]: 85
–,1.14 µM,–,1.81 µM,Nc1noc2nc(C(F)(F)F)ccc12 [SN37159],IC50 Ratio hTDO2/hIDO1 [7]: 1.6
–,8.88 µM,–,10.7 µM,COc1ccc2c(N)noc2n1 [SN37057],IC50 Ratio hTDO2/hIDO1 [7]: 1.2
–,0.66 µM,–,0.08 µM,Nc1noc2ncc(Br)cc12 [SN36458],–
–,0.92 µM,–,0.68 µM,Nc1noc2ncc([N+](=O)[O-])cc12 [SN37318],–

# Continued, compound first:
Structure (SMILES),"IC50 [4, 9]","IC50 [4, 10]","IC50 [5, 11]",IC50 [7],other results
Cc1nc2onc(N)c2c(C)c1Cl [Compound W-0019482],0.08 µM,0.09 µM,0.01 µM,15.2 µM,"MTD [1]: 150 mg/kg; growth of subcutaneous GL261-hIDO1 tumours [2]: delayed the growth; IC50 [3]: 1.85 µM; IC50 ([4]; Figure 4, LLTC-hIDO1 cell-based assay, read-out: IC50 (cell assay)): 0.0661 µM; fold more potent in the cell-based assay compared to activity against the enzyme [4, 8]: 30 fold; K:T ratio in the tumour, returned to % of that in mice without treatment ([6]; GL261-hIDO1 tumours, time point not given): approximately 50%; K:T ratio in plasma [6, 12]: reduced within an hour; K:T ratio in tumour [6, 12]: reduced within an hour; IC50 Ratio hTDO2/hIDO1 [7]: 169"
CCn1cc(-c2c(N)sc(NC(=O)c3ccccc3)c2C#N)c(C)n1 [Compound W-0020339],11.6 µM,–,50.5 µM,–,–
NC(=O)SCC(=O)Nc1ccc(F)cc1 [Compound W-0013201],20.1 µM,–,20 µM,–,–
Cc1ccc(N/N=C2/CCCNC2=O)cc1 [Compound W-0011320],17.9 µM,–,11.3 µM,–,–
COc1cc(/C(C)=N/Nc2ccc(Cl)c(Cl)c2)cc(OC)c1OC [Compound W-0079409],6.74 µM,–,16 µM,–,–
CC1=C/C(=N\Nc2ccccc2Cl)CC1 [Compound W-0079433],5.33 µM,–,13.3 µM,–,–
Fc1ccc(N/N=C2/CCCc3ccccc32)c(F)c1 [Compound W-0125931],6.04 µM,–,5.83 µM,–,–
c1ccc2c(c1)Nc1ccccc1O2 [Compound W-0020227],–,–,–,–,IC50 [4]: 1.52 µM; IC50 [5]: 3.1 µM
CC(C)N1CCC(=NNc2ccc(Cl)c(Cl)c2)CC1 [Compound W-0079407],3.39 µM,–,1.87 µM,–,–
C/C(=N\Nc1ccc(F)cc1F)c1cccs1 [Compound W-0079326],10.1 µM,–,13.1 µM,–,–
C/C(=N\Nc1ccc(F)cc1F)c1ccc(N2CCOCC2)cc1 [Compound W-0079400],20.8 µM,–,12.9 µM,–,–
Fc1ccc(N/N=C/c2sc(N3CCOCC3)nc2-c2ccccc2)cc1 [Compound W-0079497],3.45 µM,–,3.03 µM,–,–
C/C(=N\Nc1ccc(F)cc1F)c1cc2ccccc2o1 [Compound W-0079399],41.2 µM,–,25 µM,–,–
Cc1ccc(C)c(C2=Nn3c(COc4ccccc4F)nnc3SC2C)c1 (stereo not drawn) [Compound W-0080549],31.6 µM,–,70.7 µM,–,–
O=C(O)c1coc2c1C(=NNc1ccccc1)CCC2 [Compound W-0011387],3.19 µM,–,1.32 µM,–,–
C/C(=N\Nc1ccc(C)c(Cl)c1)c1ccncc1 [Compound W-0079341],17.1 µM,–,10.3 µM,–,–
N#Cc1c(NC(=O)c2ccccc2)sc(N)c1-c1cccs1 [Compound W-0003891],2.56 µM,–,22.5 µM,–,–

# From publication PMC9501369, “Evaluation of Novel Inhibitors of Tryptophan Dioxygenases for Enzyme and Species Selectivity Using Engineered Tumour Cell Lines Expressing Either Murine or Human IDO1 or TDO2” (Pharmaceuticals, 2022)
